{
  "source": "patent US20240325398A1",
  "about": "“COMBINATION THERAPIES” (Infinity Pharmaceuticals, Inc., priority 2014, published 2024)",
  "test_in_all_cases": "Combination study, ATPLite 72 h, dose matrix (Synergy Score, CI50)",
  "key": {"SU-DHL-4-epst": {"tested_on": "SU-DHL-4-epst", "conditions": "combination with Compound 1, 72 h"}, "HH": {"tested_on": "HH", "type": "cell-based", "conditions": "combination with Compound 1", "experimental": "The method is described as follows.\nAdditive effect is CI=1.0. […] Antagonistic effect is CI>1.0.\nThe Synergy Score is calculated as: […]"}, "KARPAS-299": {"tested_on": "KARPAS-299", "conditions": "combination with Compound 1"}, "Farage": {"tested_on": "Farage", "conditions": "combination with Compound 1; Farage; 72 h"}, "KARPAS-422": {"tested_on": "KARPAS-422", "conditions": "combination with Compound 1, 72 h"}, "Jeko-1": {"tested_on": "Jeko-1", "conditions": "combination with Compound 1"}, "SU-DHL-10-epst": {"tested_on": "SU-DHL-10-epst", "conditions": "combination with Compound 1, 72 h"}, "TMD8": {"tested_on": "TMD8", "conditions": "combination with Compound 1; TMD8; 72 h"}, "RL": {"tested_on": "RL", "conditions": "combination with Compound 1, 72 h"}, "HBL-1": {"tested_on": "HBL-1", "conditions": "combination with Compound 1, 72 h"}, "U-2932": {"tested_on": "U-2932", "conditions": "combination with Compound 1, 72 h"}, "OCI-Ly7": {"tested_on": "OCI-Ly7", "conditions": "combination with Compound 1, 72 h", "protocol": "(§1) Cells are thawed from a liquid nitrogen preserved state. Once cells have been expanded and divide at their expected doubling times, screening begins. Cells are seeded in growth media in either black 1536-well or 384-well tissue culture treated plates. Cells are then equilibrated in assay plates via centrifugation and placed in incubators attached to the Dosing Modules at 37° C. for 24 hours before treatment. […] These Tzero (To) plates are read using ultra-sensitive luminescence on Envision plate readers (Perkin Elmer). Treated assay plates are incubated with compound for 72 hours. After 72 hours, plates are developed for endpoint analysis using ATPLite. All data points are collected via automated processes, quality controlled and analyzed using Zalicus software.\n(§2) The measure of effect in the experiment can be the inhibition of cellular response relative to the untreated level (vehicle alone). […] The inhibition ranges from 0% at the untreated level to 100% when T=0. Inhibition levels are negative for agents that actually increase levels.\n(§3) Growth Inhibition (GI) is used as a measure of cell viability. […] A GI reading of 100% represents complete growth inhibition—T72 compound-treated and T0 vehicle signals are matched. […] A GI reading of 200% represents complete death of all cells in the culture well. Compounds reaching an activity plateau of GI 200% are considered cytotoxic. GI is calculated by applying the following test and equation:\n(§4) Combination analysis data were collected in a 6×6 dose matrix. Synergy is calculated by comparing a combination's response to those of its single compound, against the drug-with-itself dose-additive reference model. Deviations from dose additivity may be assessed visually on an isobologram or numerically with a Combination Index (CI). […] Additive effect is CI=1.0. […] Antagonistic effect is CI>1.0.\n(§5) To measure combination effects in excess of Loewe additivity, a scalar measure to characterize the strength of synergistic interaction termed the Synergy Score is devised. The Synergy Score is calculated as:\n(§6) The fractional inhibition for each component agent and combination point in the matrix is calculated relative to the median of all vehicle-treated control wells. The Synergy Score equation integrates the experimentally-observed activity volume at each point in the matrix in excess of a model surface numerically derived from the activity of the component agents using the Loewe model for additivity. Additional terms in the Synergy Score equation (above) are used to normalize for various dilution factors used for individual agents and to allow for comparison of synergy scores across an entire experiment. The inclusion of positive inhibition gating or an Idata multiplier removes noise near the zero effect level, and biases results for synergistic interactions at that occur at high activity levels.\n(§7) Loewe Volume (Loewe Vol) is used to assess the overall magnitude of the combination interaction in excess of the Loewe additivity model. Loewe Volume is particularly useful when distinguishing synergistic increases in a phenotypic activity (positive Loewe Volume) versus synergistic antagonisms (negative Loewe Volume). […] This model defines additivity as a non-synergistic combination interaction where the combination dose matrix surface should be indistinguishable from either drug crossed with itself. The calculation for Loewe additivity is:"}, "OMP-2": {"tested_on": "OMP-2", "conditions": "combination with Compound 1; OPM-2", "protocol": "as §1\n(§8) where T is treated cell count and V is untreated (vehicle) cell count (at 72 hours). I ranges from 0% (when T=V) to 100% (when T=0). […] The measure of effect in the experiment can be the inhibition of cellular response relative to the untreated level (vehicle alone). […] The inhibition ranges from 0% at the untreated level to 100% when T=0. Inhibition levels are negative for agents that actually increase levels. Other effect measures, such as an activity ratio r=T/V may be more appropriate for some assays. When activity ratios (e.g, fold increase over stimulated control) are being used, the effect can be measured using an induction 1=ln(T/V). With this definition, all effect expressions are the same as for inhibition.\nas §3, §4, §5, §6\n(§9) Loewe Volume (Loewe Vol) is used to assess the overall magnitude of the combination interaction in excess of the Loewe additivity model. Loewe Volume is particularly useful when distinguishing synergistic increases in a phenotypic activity (positive Loewe Volume) versus synergistic antagonisms (negative Loewe Volume). […] This model defines additivity as a non-synergistic combination interaction where the combination dose matrix surface should be indistinguishable from either drug crossed with itself."}, "OCI-Ly3": {"tested_on": "OCI-Ly3", "conditions": "combination with Compound 1; OCI-Ly3; 72 h"}, "GRANTA-519": {"tested_on": "GRANTA-519", "conditions": "combination with Compound 1"}, "WSU-NHL": {"tested_on": "WSU-NHL", "conditions": "combination with Compound 1, 72 h"}, "Mino": {"tested_on": "Mino", "conditions": "combination with Compound 1"}, "RPMI-8226": {"tested_on": "RPMI-8226", "conditions": "combination with Compound 1"}, "DOHH-2": {"tested_on": "DOHH-2", "conditions": "combination with Compound 1, 72 h", "protocol": "as §1, §2, §3, §4, §5, §6, §7"}, "NCI-H929": {"tested_on": "NCI-H929", "conditions": "combination with Compound 1", "protocol": "as §1, §8, §3, §4, §5, §6, §9"}},
  "data": [
    {"smiles": "O=C(Nc1ccc2[nH]nc(-c3ccncc3)c2c1)[C@@H]1CCN(CC(=O)N2CCN(c3ccc(-c4ncccn4)cc3)CC2)C1", "note": "[SCH772984, (R)-1-(2-oxo-2-(4-(4-(pyrimidin-2-yl)phenyl)piperazin-1-yl)ethyl)-N-(3-(pyridin-4-yl)-1H-indazol-5-yl)pyrrolidine-3-carboxamide]", "values": [
      {"measurement": "CI50 growth inhibition", "setting": "SU-DHL-4-epst", "result": "W (W=≥1)"},
      {"measurement": "Synergy Score growth inhibition", "setting": "SU-DHL-4-epst", "result": "A1 (A1=0.0001 to <1)"},
      {"measurement": "Synergy Score inhibition", "setting": "SU-DHL-4-epst", "result": "A1 (A1=0.0001 to <1)"},
      {"measurement": "CI50 growth inhibition", "setting": "HH", "result": "T (T=0.5 to <0.7)"},
      {"measurement": "CI50 inhibition", "setting": "HH", "result": "S (S=0.01 to <0.5)"},
      {"measurement": "Synergy Score growth inhibition", "setting": "HH", "result": "A1 (A1=0.0001 to <1)"},
      {"measurement": "Synergy Score inhibition", "setting": "HH", "result": "A1 (A1=0.0001 to <1)"},
      {"measurement": "Synergy Score growth inhibition", "setting": "KARPAS-299", "result": "A1 (A1=0.0001 to <1)"},
      {"measurement": "Synergy Score inhibition", "setting": "KARPAS-299", "result": "A1 (A1=0.0001 to <1)"},
      {"measurement": "CI50 growth inhibition", "setting": "Farage", "result": "T (T=0.5 to <0.7)"},
      {"measurement": "CI50 inhibition", "setting": "Farage", "result": "W (W=≥1)"},
      {"measurement": "Synergy Score growth inhibition", "setting": "Farage", "result": "A1 (A1=0.0001 to <1)"},
      {"measurement": "Synergy Score inhibition", "setting": "Farage", "result": "A1 (A1=0.0001 to <1)"},
      {"measurement": "CI50 growth inhibition", "setting": "KARPAS-422", "result": "T (T=0.5 to <0.7)"},
      {"measurement": "CI50 inhibition", "setting": "KARPAS-422", "result": "W (W=≥1)"},
      {"measurement": "Synergy Score growth inhibition", "setting": "KARPAS-422", "result": "A1 (A1=0.0001 to <1)"},
      {"measurement": "Synergy Score inhibition", "setting": "KARPAS-422", "result": "A1 (A1=0.0001 to <1)"},
      {"measurement": "CI50 growth inhibition", "setting": "Jeko-1", "result": "W (W=≥1)"},
      {"measurement": "Synergy Score growth inhibition", "setting": "Jeko-1", "result": "A1 (A1=0.0001 to <1)"},
      {"measurement": "Synergy Score inhibition", "setting": "Jeko-1", "result": "A1 (A1=0.0001 to <1)"},
      {"measurement": "CI50 growth inhibition", "setting": "SU-DHL-10-epst", "result": "T (T=0.5 to <0.7)"},
      {"measurement": "CI50 inhibition", "setting": "SU-DHL-10-epst", "result": "W (W=≥1)"},
      {"measurement": "Synergy Score growth inhibition", "setting": "SU-DHL-10-epst", "result": "A2 (A2=1 to <3)"},
      {"measurement": "Synergy Score inhibition", "setting": "SU-DHL-10-epst", "result": "A2 (A2=1 to <3)"},
      {"measurement": "CI50 growth inhibition", "setting": "TMD8", "result": "T (T=0.5 to <0.7)"},
      {"measurement": "CI50 inhibition", "setting": "TMD8", "result": "U (U=0.7 to <1)"},
      {"measurement": "Synergy Score growth inhibition", "setting": "TMD8", "result": "A1 (A1=0.0001 to <1)"},
      {"measurement": "Synergy Score inhibition", "setting": "TMD8", "result": "A1 (A1=0.0001 to <1)"},
      {"measurement": "Synergy Score growth inhibition", "setting": "RL", "result": "A1 (A1=0.0001 to <1)"},
      {"measurement": "Synergy Score inhibition", "setting": "RL", "result": "A1 (A1=0.0001 to <1)"},
      {"measurement": "CI50 growth inhibition", "setting": "HBL-1", "result": "T (T=0.5 to <0.7)"},
      {"measurement": "Synergy Score growth inhibition", "setting": "HBL-1", "result": "A1 (A1=0.0001 to <1)"},
      {"measurement": "Synergy Score inhibition", "setting": "HBL-1", "result": "A1 (A1=0.0001 to <1)"},
      {"measurement": "CI50 growth inhibition", "setting": "U-2932", "result": "W (W=≥1)"},
      {"measurement": "Synergy Score growth inhibition", "setting": "U-2932", "result": "A1 (A1=0.0001 to <1)"},
      {"measurement": "Synergy Score inhibition", "setting": "U-2932", "result": "A1 (A1=0.0001 to <1)"},
      {"measurement": "Synergy Score growth inhibition", "setting": "OCI-Ly7", "result": "A1 (A1=0.0001 to <1)"},
      {"measurement": "Synergy Score inhibition", "setting": "OCI-Ly7", "result": "A1 (A1=0.0001 to <1)"},
      {"measurement": "Synergy Score growth inhibition", "setting": "OMP-2", "result": "A1 (A1=0.0001 to <1)"},
      {"measurement": "Synergy Score inhibition", "setting": "OMP-2", "result": "A1 (A1=0.0001 to <1)"},
      {"measurement": "CI50 growth inhibition", "setting": "OCI-Ly3", "result": "W (W=≥1)"},
      {"measurement": "Synergy Score growth inhibition", "setting": "OCI-Ly3", "result": "A1 (A1=0.0001 to <1)"},
      {"measurement": "Synergy Score inhibition", "setting": "OCI-Ly3", "result": "A1 (A1=0.0001 to <1)"},
      {"measurement": "Synergy Score growth inhibition", "setting": "GRANTA-519", "result": "A1 (A1=0.0001 to <1)"},
      {"measurement": "Synergy Score inhibition", "setting": "GRANTA-519", "result": "A1 (A1=0.0001 to <1)"},
      {"measurement": "CI50 growth inhibition", "setting": "WSU-NHL", "result": "U (U=0.7 to <1)"},
      {"measurement": "CI50 inhibition", "setting": "WSU-NHL", "result": "U (U=0.7 to <1)"},
      {"measurement": "Synergy Score growth inhibition", "setting": "WSU-NHL", "result": "A1 (A1=0.0001 to <1)"},
      {"measurement": "Synergy Score inhibition", "setting": "WSU-NHL", "result": "A1 (A1=0.0001 to <1)"},
      {"measurement": "CI50 growth inhibition", "setting": "Mino", "result": "W (W=≥1)"},
      {"measurement": "Synergy Score growth inhibition", "setting": "Mino", "result": "A1 (A1=0.0001 to <1)"},
      {"measurement": "Synergy Score inhibition", "setting": "Mino", "result": "A1 (A1=0.0001 to <1)"},
      {"measurement": "Synergy Score growth inhibition", "setting": "RPMI-8226", "result": "A1 (A1=0.0001 to <1)"},
      {"measurement": "Synergy Score inhibition", "setting": "RPMI-8226", "result": "A1 (A1=0.0001 to <1)"},
      {"measurement": "CI50 growth inhibition", "setting": "DOHH-2", "result": "W (W=≥1)"},
      {"measurement": "CI50 inhibition", "setting": "DOHH-2", "result": "W (W=≥1)"},
      {"measurement": "Synergy Score growth inhibition", "setting": "DOHH-2", "result": "A1 (A1=0.0001 to <1)"},
      {"measurement": "Synergy Score inhibition", "setting": "DOHH-2", "result": "A1 (A1=0.0001 to <1)"},
      {"measurement": "CI50 growth inhibition", "setting": "NCI-H929", "result": "W (W=≥1)"},
      {"measurement": "CI50 inhibition", "setting": "NCI-H929", "result": "W (W=≥1)"},
      {"measurement": "Synergy Score growth inhibition", "setting": "NCI-H929", "result": "A1 (A1=0.0001 to <1)"},
      {"measurement": "Synergy Score inhibition", "setting": "NCI-H929", "result": "A1 (A1=0.0001 to <1)"}
    ]}
  ]
}
